ChEMBL document CHEMBL4507297, “Data for DCP probe PF-04457845” (2021)

Tests used:
[1] = molecular target: Tyrosine-protein kinase Lck (Homo sapiens) (UniProt P06239); details: Compound concentration 1000.0 nM
[2] = molecular target: Serine/threonine-protein kinase N1 (Homo sapiens) (UniProt Q16512); details: Compound concentration 1000.0 nM
[3] = molecular target: Rhodopsin kinase GRK1 (Homo sapiens) (UniProt Q15835); details: Compound concentration 1000.0 nM
[4] = molecular target: Serine/threonine-protein kinase Nek7 (Homo sapiens) (UniProt Q8TDX7); details: Compound concentration 1000.0 nM
[5] = molecular target: 5'-AMP-activated protein kinase catalytic subunit alpha-2 (Homo sapiens) (UniProt P54646); details: Compound concentration 1000.0 nM
Sequence of 5'-AMP-activated protein kinase catalytic subunit alpha-2 (Homo sapiens) (P54646 whole entry, looked up): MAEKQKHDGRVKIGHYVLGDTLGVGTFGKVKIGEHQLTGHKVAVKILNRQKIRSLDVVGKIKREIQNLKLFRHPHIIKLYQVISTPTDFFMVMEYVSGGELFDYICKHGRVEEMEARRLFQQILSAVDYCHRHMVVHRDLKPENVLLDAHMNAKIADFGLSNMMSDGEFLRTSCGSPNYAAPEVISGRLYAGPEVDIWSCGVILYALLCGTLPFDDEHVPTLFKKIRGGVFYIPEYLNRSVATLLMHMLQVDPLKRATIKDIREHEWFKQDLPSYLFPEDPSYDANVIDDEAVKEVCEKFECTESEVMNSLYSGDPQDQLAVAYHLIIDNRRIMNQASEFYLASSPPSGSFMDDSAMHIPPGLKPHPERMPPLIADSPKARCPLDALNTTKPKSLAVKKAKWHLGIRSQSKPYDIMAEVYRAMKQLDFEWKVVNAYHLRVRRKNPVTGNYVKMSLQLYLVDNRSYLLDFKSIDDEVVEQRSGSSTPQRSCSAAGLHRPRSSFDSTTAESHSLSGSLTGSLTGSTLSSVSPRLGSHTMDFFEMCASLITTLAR

[6] = molecular target: Calcium/calmodulin-dependent protein kinase type II subunit alpha (Homo sapiens) (UniProt Q9UQM7); details: Compound concentration 1000.0 nM
[7] = molecular target: Misshapen-like kinase 1 (Homo sapiens) (UniProt Q8N4C8); details: Compound concentration 1000.0 nM
[8] = molecular target: Tyrosine-protein kinase BTK (Homo sapiens) (UniProt Q06187); details: Compound concentration 1000.0 nM
[9] = molecular target: Tyrosine-protein kinase Blk (Homo sapiens) (UniProt P51451); details: Compound concentration 1000.0 nM
[10] = tested on: Epidermal growth factor receptor (Homo sapiens), P00533 [UNDEFINED MUTATION]; details: Compound concentration 1000.0 nM
[11] = molecular target: Serine/threonine-protein kinase Chk2 (Homo sapiens) (UniProt O96017); details: Compound concentration 1000.0 nM
[12] = molecular target: Ephrin type-B receptor 3 (Homo sapiens) (UniProt P54753); details: Compound concentration 1000.0 nM
[13] = molecular target: Mitogen-activated protein kinase kinase kinase 11 (Homo sapiens) (UniProt Q16584); details: Compound concentration 1000.0 nM
[14] = molecular target: Leucine-rich repeat serine/threonine-protein kinase 2 (Homo sapiens) (UniProt Q5S007); details: Compound concentration 1000.0 nM
[15] = molecular target: Mitogen-activated protein kinase kinase kinase 1 (Homo sapiens) (UniProt Q13233); details: Compound concentration 1000.0 nM
[16] = molecular target: D(2) dopamine receptor (Homo sapiens) (UniProt P14416); details: Compound concentration 10.0 uM
Sequence of D(2) dopamine receptor (Homo sapiens) (P14416 whole entry): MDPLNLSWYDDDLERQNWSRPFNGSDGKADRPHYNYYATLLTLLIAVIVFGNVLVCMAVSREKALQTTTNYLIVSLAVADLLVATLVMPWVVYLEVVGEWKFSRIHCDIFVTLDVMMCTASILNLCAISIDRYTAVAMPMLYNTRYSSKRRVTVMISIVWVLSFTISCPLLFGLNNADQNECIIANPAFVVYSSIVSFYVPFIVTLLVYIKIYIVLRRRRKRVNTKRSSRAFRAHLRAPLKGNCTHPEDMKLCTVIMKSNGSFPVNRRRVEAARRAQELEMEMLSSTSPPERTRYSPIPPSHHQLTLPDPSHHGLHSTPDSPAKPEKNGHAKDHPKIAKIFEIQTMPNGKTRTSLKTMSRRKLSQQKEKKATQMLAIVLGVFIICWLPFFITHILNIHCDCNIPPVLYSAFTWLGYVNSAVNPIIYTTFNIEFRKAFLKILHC

[17] = molecular target: Serine/threonine-protein kinase 35 (Homo sapiens) (UniProt Q8TDR2); details: Compound concentration 1000.0 nM
Sequence of Serine/threonine-protein kinase 35 (Homo sapiens) (Q8TDR2 whole entry): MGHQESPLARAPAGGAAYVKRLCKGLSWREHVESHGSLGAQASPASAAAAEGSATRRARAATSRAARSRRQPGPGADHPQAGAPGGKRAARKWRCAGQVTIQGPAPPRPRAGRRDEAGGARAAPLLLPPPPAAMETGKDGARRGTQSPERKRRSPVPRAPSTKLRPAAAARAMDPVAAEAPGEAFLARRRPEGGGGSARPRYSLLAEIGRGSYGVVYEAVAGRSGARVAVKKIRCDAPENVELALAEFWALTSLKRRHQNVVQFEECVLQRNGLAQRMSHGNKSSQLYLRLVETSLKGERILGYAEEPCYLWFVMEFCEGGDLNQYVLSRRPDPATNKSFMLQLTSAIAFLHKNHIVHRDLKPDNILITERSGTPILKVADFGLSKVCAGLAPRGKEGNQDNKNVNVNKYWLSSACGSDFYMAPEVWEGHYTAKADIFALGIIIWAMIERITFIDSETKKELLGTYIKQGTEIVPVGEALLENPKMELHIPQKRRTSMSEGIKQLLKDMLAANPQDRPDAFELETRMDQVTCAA

[18] = molecular target: Activin receptor type-2A (Homo sapiens) (UniProt P27037); details: Compound concentration 1000.0 nM
[19] = molecular target: Tyrosine-protein kinase JAK3 (Homo sapiens) (UniProt P52333); details: Compound concentration 1000.0 nM
[20] = molecular target: Mitogen-activated protein kinase 9 (Homo sapiens) (UniProt P45984); details: Compound concentration 1000.0 nM
[21] = molecular target: Serine/threonine-protein kinase tousled-like 2 (Homo sapiens) (UniProt Q86UE8); details: Compound concentration 1000.0 nM
[22] = molecular target: Serine/threonine-protein kinase Nek5 (Homo sapiens) (UniProt Q6P3R8); details: Compound concentration 1000.0 nM
[23] = tested on: Receptor-type tyrosine-protein kinase FLT3 (Homo sapiens), P36888 [K663Q]; details: Compound concentration 1000.0 nM
[24] = molecular target: T1, Alpha-2A adrenergic receptor (Homo sapiens) (UniProt P08913); details: Compound concentration 10.0 uM
T1 sequence (whole entry): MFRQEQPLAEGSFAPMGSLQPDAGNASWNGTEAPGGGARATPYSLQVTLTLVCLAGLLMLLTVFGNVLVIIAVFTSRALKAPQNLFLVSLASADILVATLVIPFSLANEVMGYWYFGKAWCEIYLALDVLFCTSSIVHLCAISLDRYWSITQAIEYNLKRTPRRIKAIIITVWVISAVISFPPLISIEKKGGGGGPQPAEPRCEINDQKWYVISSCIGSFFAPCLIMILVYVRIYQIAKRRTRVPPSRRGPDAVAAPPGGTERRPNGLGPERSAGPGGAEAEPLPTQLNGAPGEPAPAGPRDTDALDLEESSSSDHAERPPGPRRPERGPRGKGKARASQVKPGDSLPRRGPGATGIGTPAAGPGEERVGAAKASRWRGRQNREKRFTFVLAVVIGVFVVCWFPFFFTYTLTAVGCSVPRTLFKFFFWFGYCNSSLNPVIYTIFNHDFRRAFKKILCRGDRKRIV

[25] = molecular target: Aurora kinase C (Homo sapiens) (UniProt Q9UQB9); details: Compound concentration 1000.0 nM
[26] = molecular target: Myosin light chain kinase family member 4 (Homo sapiens) (UniProt Q86YV6); details: Compound concentration 1000.0 nM
[27] = molecular target: Receptor tyrosine-protein kinase erbB-4 (Homo sapiens) (UniProt Q15303); details: Compound concentration 1000.0 nM
[28] = molecular target: Serine/threonine-protein kinase/endoribonuclease IRE1 (Homo sapiens) (UniProt O75460); details: Compound concentration 1000.0 nM
[29] = molecular target: Mitogen-activated protein kinase 13 (Homo sapiens) (UniProt O15264); details: Compound concentration 1000.0 nM
Sequence of Mitogen-activated protein kinase 13 (Homo sapiens) (O15264 whole entry): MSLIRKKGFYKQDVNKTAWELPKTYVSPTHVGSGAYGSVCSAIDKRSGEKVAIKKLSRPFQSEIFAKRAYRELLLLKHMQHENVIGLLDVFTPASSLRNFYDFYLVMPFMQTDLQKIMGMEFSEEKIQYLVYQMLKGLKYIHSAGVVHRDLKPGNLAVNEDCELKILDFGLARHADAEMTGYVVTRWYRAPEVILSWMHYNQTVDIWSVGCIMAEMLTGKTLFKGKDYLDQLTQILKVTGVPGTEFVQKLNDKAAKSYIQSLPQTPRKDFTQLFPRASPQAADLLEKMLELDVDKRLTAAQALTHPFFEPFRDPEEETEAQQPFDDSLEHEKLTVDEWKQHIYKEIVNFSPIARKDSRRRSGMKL

[30] = molecular target: Serine/threonine-protein kinase D1 (Homo sapiens) (UniProt Q15139); details: Compound concentration 1000.0 nM
[31] = molecular target: Tyrosine-protein kinase Fyn (Homo sapiens) (UniProt P06241); details: Compound concentration 1000.0 nM
[32] = tested on: Phosphatidylinositol 4,5-bisphosphate 3-kinase catalytic subunit alpha isoform (Homo sapiens), P42336 [H1047Y]; details: Compound concentration 1000.0 nM
Sequence of Phosphatidylinositol 4,5-bisphosphate 3-kinase catalytic subunit alpha isoform (Homo sapiens), P42336 [H1047Y] (P42336 whole entry H1047Y, canonical isoform): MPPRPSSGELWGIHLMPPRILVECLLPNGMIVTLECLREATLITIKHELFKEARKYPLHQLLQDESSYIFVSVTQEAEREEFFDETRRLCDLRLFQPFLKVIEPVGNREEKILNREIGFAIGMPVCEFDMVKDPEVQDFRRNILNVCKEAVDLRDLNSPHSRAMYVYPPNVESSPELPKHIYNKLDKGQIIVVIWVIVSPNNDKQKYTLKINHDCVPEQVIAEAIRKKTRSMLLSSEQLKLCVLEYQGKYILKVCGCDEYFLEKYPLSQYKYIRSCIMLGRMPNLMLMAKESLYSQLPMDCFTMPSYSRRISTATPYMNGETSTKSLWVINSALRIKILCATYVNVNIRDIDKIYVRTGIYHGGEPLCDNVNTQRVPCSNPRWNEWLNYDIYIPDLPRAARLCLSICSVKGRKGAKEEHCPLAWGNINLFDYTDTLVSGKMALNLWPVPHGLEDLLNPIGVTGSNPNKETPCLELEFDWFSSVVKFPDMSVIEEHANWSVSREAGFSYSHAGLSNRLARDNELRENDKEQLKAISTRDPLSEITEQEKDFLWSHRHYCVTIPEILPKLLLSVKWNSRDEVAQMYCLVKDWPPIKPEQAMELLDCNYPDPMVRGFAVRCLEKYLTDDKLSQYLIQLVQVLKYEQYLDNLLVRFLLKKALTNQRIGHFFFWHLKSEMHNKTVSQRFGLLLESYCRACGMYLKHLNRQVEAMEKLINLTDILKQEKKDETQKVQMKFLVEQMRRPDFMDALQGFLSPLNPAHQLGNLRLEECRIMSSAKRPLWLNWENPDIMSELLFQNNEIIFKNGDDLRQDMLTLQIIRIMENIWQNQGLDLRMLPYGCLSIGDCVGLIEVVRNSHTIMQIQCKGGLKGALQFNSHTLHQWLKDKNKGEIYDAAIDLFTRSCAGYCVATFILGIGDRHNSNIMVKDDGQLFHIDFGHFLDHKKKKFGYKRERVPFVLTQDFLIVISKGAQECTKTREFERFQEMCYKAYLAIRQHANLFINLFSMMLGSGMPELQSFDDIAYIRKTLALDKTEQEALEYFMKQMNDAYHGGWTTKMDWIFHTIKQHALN

[33] = tested on: Fibroblast growth factor receptor 3 (Homo sapiens), P22607 [G697C]; details: Compound concentration 1000.0 nM
[34] = molecular target: Non-receptor tyrosine-protein kinase TYK2 (Homo sapiens) (UniProt P29597); details: Compound concentration 1000.0 nM
[35] = molecular target: 5-hydroxytryptamine receptor 2A (Homo sapiens, UniProt P28223); test: 5-HT2A (h) (agonist site) CEREP ligand profiling
Sequence of 5-hydroxytryptamine receptor 2A (P28223 whole entry): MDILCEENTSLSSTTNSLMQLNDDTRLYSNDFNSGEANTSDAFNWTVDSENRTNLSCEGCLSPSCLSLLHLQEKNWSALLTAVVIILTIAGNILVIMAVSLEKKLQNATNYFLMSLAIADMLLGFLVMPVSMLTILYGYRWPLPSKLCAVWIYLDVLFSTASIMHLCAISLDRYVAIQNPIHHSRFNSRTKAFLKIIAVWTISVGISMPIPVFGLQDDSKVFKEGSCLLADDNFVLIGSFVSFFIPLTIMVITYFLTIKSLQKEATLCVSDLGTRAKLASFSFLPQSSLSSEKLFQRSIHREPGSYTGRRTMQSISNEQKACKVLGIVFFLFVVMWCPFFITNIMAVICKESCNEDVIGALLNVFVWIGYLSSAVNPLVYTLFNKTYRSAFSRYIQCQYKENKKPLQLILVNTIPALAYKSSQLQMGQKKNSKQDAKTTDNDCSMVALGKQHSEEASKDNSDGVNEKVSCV

[36] = molecular target: Ca2+ channel (L, DHP site); voltage-gated L-type calcium channel (Homo sapiens, UniProt O60840+Q01668+Q13698+Q13936); test: Ca2+ channel (L, DHP site) CEREP ligand profiling; format: protein assay; details: compound concentration 10 uM
[37] = molecular target: Mitogen-activated protein kinase 14 (Homo sapiens) (UniProt Q16539); test: p38alpha kinase (h) CEREP ligand profiling; details: Compound concentration 10.0 uM
[38] = molecular target: Muscarinic acetylcholine receptor M3 (Homo sapiens) (UniProt P20309); test: M3 (h) CEREP ligand profiling; details: Compound concentration 10.0 uM

Sequence of Tyrosine-protein kinase Lck (Homo sapiens) (P06239 2-509 limits assumed): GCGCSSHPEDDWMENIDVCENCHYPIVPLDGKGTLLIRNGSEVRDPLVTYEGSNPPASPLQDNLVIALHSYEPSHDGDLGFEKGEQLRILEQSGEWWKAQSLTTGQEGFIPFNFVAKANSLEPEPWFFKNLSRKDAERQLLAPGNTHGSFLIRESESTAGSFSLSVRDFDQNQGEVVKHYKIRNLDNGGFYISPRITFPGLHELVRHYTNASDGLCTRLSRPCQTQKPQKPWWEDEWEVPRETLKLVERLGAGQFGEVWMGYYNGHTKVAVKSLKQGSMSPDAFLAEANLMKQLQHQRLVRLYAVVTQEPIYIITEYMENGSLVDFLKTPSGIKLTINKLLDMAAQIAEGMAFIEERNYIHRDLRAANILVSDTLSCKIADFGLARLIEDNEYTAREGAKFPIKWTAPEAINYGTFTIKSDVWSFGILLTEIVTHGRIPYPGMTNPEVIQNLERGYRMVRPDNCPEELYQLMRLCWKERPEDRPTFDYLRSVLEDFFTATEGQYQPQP
Sequence of Serine/threonine-protein kinase N1 (Homo sapiens) (Q16512 2-942 limits assumed): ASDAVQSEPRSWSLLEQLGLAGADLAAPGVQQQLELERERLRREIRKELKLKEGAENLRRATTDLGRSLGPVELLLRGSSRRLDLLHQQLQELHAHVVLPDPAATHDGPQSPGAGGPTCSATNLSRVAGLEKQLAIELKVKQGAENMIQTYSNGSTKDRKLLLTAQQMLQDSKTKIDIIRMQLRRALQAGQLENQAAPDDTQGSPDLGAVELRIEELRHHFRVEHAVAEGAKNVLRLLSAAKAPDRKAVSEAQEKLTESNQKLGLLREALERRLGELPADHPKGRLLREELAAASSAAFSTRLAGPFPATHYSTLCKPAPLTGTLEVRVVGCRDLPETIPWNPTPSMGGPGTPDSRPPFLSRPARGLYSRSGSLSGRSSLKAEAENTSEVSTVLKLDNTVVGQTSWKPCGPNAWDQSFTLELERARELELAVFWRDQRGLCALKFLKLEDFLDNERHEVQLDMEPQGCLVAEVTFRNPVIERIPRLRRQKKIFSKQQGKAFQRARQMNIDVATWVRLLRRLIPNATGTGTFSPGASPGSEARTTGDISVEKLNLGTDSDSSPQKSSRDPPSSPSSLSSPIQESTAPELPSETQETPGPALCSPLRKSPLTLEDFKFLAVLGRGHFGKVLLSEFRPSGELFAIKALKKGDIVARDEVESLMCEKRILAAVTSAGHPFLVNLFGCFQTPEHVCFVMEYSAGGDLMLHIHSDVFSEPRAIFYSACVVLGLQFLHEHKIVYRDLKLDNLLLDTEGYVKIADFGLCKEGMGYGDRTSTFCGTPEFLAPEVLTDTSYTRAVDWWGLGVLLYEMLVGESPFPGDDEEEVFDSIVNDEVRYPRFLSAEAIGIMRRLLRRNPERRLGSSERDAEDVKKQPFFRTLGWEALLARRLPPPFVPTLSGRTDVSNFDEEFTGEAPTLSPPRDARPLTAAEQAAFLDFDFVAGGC

O=C(Nc1cccnn1)N1CC(C/C=C/c2cncc(Oc3ccc(C(F)(F)F)cn3)n2)C1
residual activity [1]: 100%
residual activity [2]: 100%
residual activity [3]: 82%
residual activity [4]: 100%
residual activity [5]: 96%
residual activity [6]: 100%
residual activity [7]: 100%
residual activity [8]: 59%
residual activity [9]: 65%
residual activity [10]: 85%
residual activity [11]: 100%
residual activity [12]: 100%
residual activity [13]: 100%
residual activity [14]: 90%
residual activity [15]: 66%
inhibition [16]: 13.7%
residual activity [17]: 94%
residual activity [18]: 100%
residual activity [19]: 100%
residual activity [20]: 72%
residual activity [21]: 100%
residual activity [22]: 100%
residual activity [23]: 100%
inhibition [24]: 0.68%
residual activity [25]: 100%
residual activity [26]: 100%
residual activity [27]: 100%
residual activity [28]: 67%
residual activity [29]: 100%
residual activity [30]: 100%
residual activity [31]: 100%
residual activity [32]: 100%
residual activity [33]: 100%
residual activity [34]: 82%

O=C(Nc1cccnn1)N1CCC(=Cc2cccc(Oc3ccc(C(F)(F)F)cn3)c2)CC1
residual activity [1]: 80%
residual activity [2]: 100%
residual activity [3]: 89%
Ki [35]: 1.6 µM
inhibition ([35]; Compound concentration 10.0 uM): 57%
residual activity [4]: 100%
residual activity [5]: 100%
residual activity [6]: 72%
residual activity [7]: 100%
residual activity [8]: 100%
residual activity [9]: 100%
residual activity [10]: 73%
inhibition at 10 µM [36]: 11% (not active)
residual activity [11]: 94%
residual activity [12]: 81%
inhibition [37]: 1%
residual activity [13]: 74%
residual activity [14]: 99%
residual activity [15]: 100%
inhibition [16]: 1.84%
residual activity [17]: 100%
residual activity [18]: 100%
residual activity [19]: 100%
residual activity [20]: 100%
residual activity [21]: 100%
residual activity [22]: 97%
residual activity [23]: 100%
inhibition [38]: 11%
inhibition [24]: 34.5%
residual activity [25]: 100%
residual activity [26]: 100%
residual activity [27]: 100%
residual activity [28]: 92%
residual activity [29]: 86%
residual activity [30]: 100%
residual activity [31]: 100%
residual activity [32]: 82%
residual activity [33]: 100%
residual activity [34]: 100%
